One test has as its system CD69. As to the kind of experiment: Induction of CD69 in human whole blood. The class given is cell-based. The following applies: 17 hrs, CD69 surface staining, 100% set to 1 uM of resiquimod, average where assay was performed multiple times, read-out: hWB CD69 EC50. Here is the method: The induction of Type I interferon (IFN) MX-1 genes and the B-cell activation marker CD69 are downstream events that occur upon activation of the TLR7 pathway. The following is a human whole blood assay that measures their induction in response to a TLR7 agonist.
Heparinized human whole blood was harvested from human subjects and treated with test TLR7 agonist compounds at 1 mM. The blood was diluted with RPMI 1640 media and Echo was used to predot 10 nL per well giving a final concentration of 1 uM (10 nL in 10 uL of blood). After mixing on a shaker for 30 sec, the plates were covered and placed in a 37° C. chamber for o/n=17 hrs. Fixing/lysis buffer was prepared (5×→1× in H2O, warm at 37° C.; Cat # BD 558049) and kept the perm buffer (on ice) for later use.
For surface markers staining (CD69): prepared surface Abs: 0.045 ul hCD14-FITC (ThermoFisher Cat # MHCD1401)+0.6 ul hCD19-ef450 (ThermoFisher Cat #48-0198-42)+1.5 ul hCD69-PE (cat # BD555531)+0.855 ul FACS buffer. Added 3 ul/well, spin1000 rpm for 1 min and mixed on shaker for 30 sec, put on ice for 30 mins. Stop stimulation after 30 minutes with 70 uL of prewarmed 1× fix/lysis buffer and use Feliex mate to resuspend (15 times, change tips for each plate) and incubate at 37 C for 10 minutes.
Centrifuge at 2000 rpm for 5 minutes aspirate with HCS plate washer, mix on shaker for 30 sec and then wash with 70 uL in dPBS and pelleted 2×s (2000 rpm for 5 min) and 50 ul wash in FACS buffer pelleted 1×s(2000 rpm for 5 min). Mix on shaker for 30 sec. For Intracellular markers staining (MX-1): Add 50 ul of BD Perm buffer III and mix on shaker for 30 sec. Incubate on ice for 30 minutes (in the dark). Wash with 50 uL of FACS buffer 2× (spin @2300 rpm×5 min after perm) followed by mixing on shaker for 30 sec. Resuspended in 20 ul of FACS buffer containing MX1 antibody ( )(4812)-Alexa 647: Novus Biologicals #NBP2-43704AF647) 20 ul FACS bf+0.8 ul hlgG+0.04 ul MX-1. Spin 1000 rpm for 1 min, mix on shaker for 30se and the samples were incubated at RT in the dark for 45 minutes followed by washing 2×FACS buffer (spin @2300 rpm×5 min after perm). Resuspend 20 ul (35 uL total per well) of FACS buffer and cover with foil and place in 4° C. to read the following day. Plates were read on iQuePlus. The results were loaded into toolset and […] curves are generated in curve master. The y-axis 100% is set to 1 uM of resiquimod.

The next test deals with T1, human TLR7 (Homo sapiens, UniProt Q9NYK1).
T1 construct: host or cells: HEK-Blue TLR7 cells (engineered human embryonic kidney cells)
T1 sequence (Q9NYK1 27-1049): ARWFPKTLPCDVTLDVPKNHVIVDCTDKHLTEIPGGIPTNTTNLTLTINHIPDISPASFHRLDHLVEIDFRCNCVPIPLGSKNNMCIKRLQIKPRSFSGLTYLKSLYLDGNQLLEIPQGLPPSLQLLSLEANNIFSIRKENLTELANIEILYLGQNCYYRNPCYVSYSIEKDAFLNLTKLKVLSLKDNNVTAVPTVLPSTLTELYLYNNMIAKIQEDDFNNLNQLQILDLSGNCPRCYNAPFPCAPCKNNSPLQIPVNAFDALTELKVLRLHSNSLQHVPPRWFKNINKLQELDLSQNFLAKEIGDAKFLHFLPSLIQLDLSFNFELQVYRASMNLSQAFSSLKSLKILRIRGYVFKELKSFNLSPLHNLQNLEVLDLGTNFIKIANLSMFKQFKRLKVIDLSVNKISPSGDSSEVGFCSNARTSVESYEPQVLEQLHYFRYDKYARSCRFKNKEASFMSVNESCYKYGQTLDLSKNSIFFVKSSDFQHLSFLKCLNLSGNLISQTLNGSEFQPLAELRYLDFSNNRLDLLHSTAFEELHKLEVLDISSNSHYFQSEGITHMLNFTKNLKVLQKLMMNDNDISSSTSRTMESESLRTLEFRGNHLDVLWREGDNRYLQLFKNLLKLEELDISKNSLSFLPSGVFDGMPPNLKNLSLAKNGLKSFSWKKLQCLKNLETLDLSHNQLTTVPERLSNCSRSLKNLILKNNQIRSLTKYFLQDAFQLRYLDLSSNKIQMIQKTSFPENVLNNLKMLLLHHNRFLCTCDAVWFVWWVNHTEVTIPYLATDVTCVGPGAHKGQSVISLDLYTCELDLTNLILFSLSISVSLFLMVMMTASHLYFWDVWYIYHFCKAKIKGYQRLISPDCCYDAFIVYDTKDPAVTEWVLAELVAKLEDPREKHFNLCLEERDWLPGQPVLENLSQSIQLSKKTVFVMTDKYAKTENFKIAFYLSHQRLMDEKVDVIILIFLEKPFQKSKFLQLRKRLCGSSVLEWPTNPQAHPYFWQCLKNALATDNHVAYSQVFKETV
As to the kind of experiment: Human TLR7 agonist (reporter) activity assay, HEK-Blue TLR7 cells, SEAP reporter. The following applies: 18 h treatment, average where assay was performed multiple times, read-out: hTLR7 Agonism EC50. The format is cell-based. Here is the method: This procedure describes a method for assaying human TLR7 (hTLR7) agonist activity of the compounds disclosed in this specification.
HEK-Blue™ TLR7 cells were added to each well of a 384-well tissue-culture plate (15,000 cells per well) and incubated 16-18 h at 37° C., 5% CO2. Compounds (100 nl) were dispensed into wells containing the HEK-Blue™ TLR cells and the treated cells were incubated at 37° C., 5% CO2. After 18 h treatment ten microliters of freshly-prepared Quanti-Blue™ reagent (Invivogen) was added to each well, incubated for 30 min (37° C., 5% CO2) and SEAP levels measured using an Envision plate reader (OD=620 nm). The half maximal effective concentration values (EC50; compound concentration which induced a response halfway between the assay baseline and maximum) were calculated.

15 compounds from US20230131192A1, “1H-PYRAZOLO[4,3-d]PYRIMIDINE COMPOUNDS AS TOLL-LIKE RECEPTOR 7 (TLR7) AGONISTS” (BRISTOL-MYERS SQUIBB COMPANY, priority 2020, published 2023) can be followed below.

For orientation: EC50 means the concentration giving half of the maximal effect.

Turning to `COc1cc(CN2CCS(=O)(=O)CC2)ccc1Cn1ncc2nc(N)nc(NCc3noc(C)n3)c21` [Compound 121, 4-({4-[(5-amino-7-{[(5-methyl-1,2,4-oxadiazol-3-yl)methyl]amino}-1H-pyrazolo[4,3-d]pyrimidin-1-yl)methyl]-3-methoxyphenyl}methyl)-1λ^6-thiomorpholine-1,1-dione], the EC50 in the test on CD69 came to 289 nM; on human TLR7, 656 nM.
In the same order, the values of `COc1cc(CN2CC(OC)C2)ccc1Cn1ncc2nc(N)nc(NCc3noc(C)n3)c21` [Compound 118, 1-({2-methoxy-4-[(3-methoxyazetidin-1-yl)methyl]phenyl}methyl)-N7-[(5-methyl-1,2,4-oxadiazol-3-yl)methyl]-1H-pyrazolo[4,3-d]pyrimidine-5,7-diamine] are 4.3 nM and 47.9 nM.
In the same order, the values of `COc1cc(CO)ccc1Cn1ncc2nc(N)nc(NCc3cc(C)on3)c21` [Compound 101, {4-[(5-amino-7-{[(5-methyl-1,2-oxazol-3-yl)methyl]amino}-1H-pyrazolo[4,3-d]pyrimidin-1-yl)methyl]-3-methoxyphenyl}methanol] are 472 nM and 354 nM.
For `COc1cc(CN2CCN(CCO)CC2)ccc1Cn1ncc2nc(N)nc(NCc3noc(C)n3)c21` [Compound 117, 2-[4-({4-[(5-amino-7-{[(5-methyl-1,2,4-oxadiazol-3-yl)methyl]amino}-1H-pyrazolo[4,3-d]pyrimidin-1-yl)methyl]-3-methoxyphenyl}methyl)piperazin-1-yl]ethan-1-ol], the EC50 with CD69 is 1.4 nM; on human TLR7, 18.6 nM.
In the same order, the values of `COc1cc(CNC2CCOCC2)cnc1Cn1ncc2nc(N)nc(NCc3noc(C)n3)c21` [Compound 130, 1-[(3-methoxy-5-{[(oxan-4-yl)amino]methyl}pyridin-2-yl)methyl]-N7-[(5-methyl-1,2,4-oxadiazol-3-yl)methyl]-1H-pyrazolo[4,3-d]pyrimidine-5,7-diamine] are 85 nM and 1350 nM.
In the same order, the values of `COc1cc(CN2CCN(S(C)(=O)=O)CC2)ccc1Cn1ncc2nc(N)nc(NCc3noc(C)n3)c21` [Compound 120, 1-({4-[(4-methanesulfonylpiperazin-1-yl)methyl]-2-methoxyphenyl}methyl)-N7-[(5-methyl-1,2,4-oxadiazol-3-yl)methyl]-1H-pyrazolo[4,3-d]pyrimidine-5,7-diamine] are 299 nM and 345 nM.
For `COc1cc(CNC2CCOCC2)ccc1Cn1ncc2nc(N)nc(NCc3cc(C)on3)c21` [Compound 103, 1-[(2-methoxy-4-{[(oxan-4-yl)amino]methyl}phenyl)methyl]-N7-[(5-methyl-1,2-oxazol-3-yl)methyl]-1H-pyrazolo[4,3-d]pyrimidine-5,7-diamine] the same measures were 5.4 nM and 57.6 nM.
In the case of `COc1cc(CNC2CCOCC2)ccc1Cn1ncc2nc(N)nc(NCC[C@H](O)C3CC3)c21` [Compound 109A, (1S)-3-({5-amino-1-[(2-methoxy-4-{[(oxan-4-yl)amino]methyl}phenyl)methyl]-1H-pyrazolo[4,3-d]pyrimidin-7-yl}amino)-1-cyclopropylpropan-1-ol], the results for the concentration giving a half-maximal response (EC50) in the test on CD69 and on human TLR7 were 75.4 nM and 338 nM, respectively.
In the case of `COc1cc(CNC2CCOCC2)ccc1Cn1nc(C)c2nc(N)nc(NCc3cc(C)on3)c21` [Compound 112, 1-[(2-methoxy-4-{[(oxan-4-yl)amino]methyl}phenyl)methyl]-3-methyl-N7-[(5-methyl-1,2-oxazol-3-yl)methyl]-1H-pyrazolo[4,3-d]pyrimidine-5,7-diamine], the results for the EC50 in the test with CD69 and at human TLR7 were 10.3 nM and 95.9 nM, respectively.
For `COc1cc(CNC2CCOCC2)ccc1Cn1ncc2nc(N)nc(NCc3noc(C)n3)c21` [Compound 114, 1-[(2-methoxy-4-{[(oxan-4-yl)amino]methyl}phenyl)methyl]-N7-[(5-methyl-1,2,4-oxadiazol-3-yl)methyl]-1H-pyrazolo[4,3-d]pyrimidine-5,7-diamine] the same measures were 19.6 nM and 79.1 nM.
In the same order, the values of `COc1cc(CNC2CCN(S(C)(=O)=O)CC2)ccc1Cn1ncc2nc(N)nc(NCc3noc(C)n3)c21` [Compound 123, 1-[(4-{[(1-methanesulfonylpiperidin-4-yl)amino]methyl}-2-methoxyphenyl)methyl]-N7-[(5-methyl-1,2,4-oxadiazol-3-yl)methyl]-1H-pyrazolo[4,3-d]pyrimidine-5,7-diamine] are 18.2 nM and 196 nM.
For `COc1cc(CN2CC(OC)C2)ccc1Cn1ncc2nc(N)nc(NCc3cc(C)on3)c21` [Compound 106, 1-({2-methoxy-4-[(3-methoxyazetidin-1-yl)methyl]phenyl}methyl)-N7-[(5-methyl-1,2-oxazol-3-yl)methyl]-1H-pyrazolo[4,3-d]pyrimidine-5,7-diamine] the same measures were 9.5 nM and 57 nM.
For the compound `COc1cc(CN2CCN(CCO)CC2)ccc1Cn1ncc2nc(N)nc(NCc3noc(C4CC4)n3)c21` [Compound 128, 2-[4-({4-[(5-amino-7-{[(5-cyclopropyl-1,2,4-oxadiazol-3-yl)methyl]amino}-1H-pyrazolo[4,3-d]pyrimidin-1-yl)methyl]-3-methoxyphenyl}methyl)piperazin-1-yl]ethan-1-ol], the EC50 with CD69 is 7.5 nM; at human TLR7, 33.7 nM.
For `COc1cc(CN2CCN(CCO)CC2)cnc1Cn1ncc2nc(N)nc(NCc3noc(C)n3)c21` [Compound 131, 2-[4-({6-[(5-amino-7-{[(5-methyl-1,2,4-oxadiazol-3-yl)methyl]amino}-1H-pyrazolo[4,3-d]pyrimidin-1-yl)methyl]-5-methoxypyridin-3-yl}methyl)piperazin-1-yl]ethan-1-ol] the same measures were 72.7 nM and 1000 nM.
For `COc1cc(CN2CCN(C)CC2)ccc1Cn1ncc2nc(N)nc(NCc3noc(C)n3)c21` [Compound 115, 1-({2-methoxy-4-[(4-methylpiperazin-1-yl)methyl]phenyl}methyl)-N7-[(5-methyl-1,2,4-oxadiazol-3-yl)methyl]-1H-pyrazolo[4,3-d]pyrimidine-5,7-diamine] the same measures were 15.5 nM and 67.2 nM.
